Results published in patent US20240307485A1, “WS635 USES THEREOF IN MEDICINE” (WATERSTONE PHARMACEUTICALS (WUHAN) CO., LTD., priority 2021, published 2024).
Entries after “also recorded” stand apart in the source; their conditions may differ.

What was measured:
[1] = system: wound healing model of SD rats; test: Skin wound healing model in SD rats (full-thickness circular skin wound, 2 cm diameter); type: in vivo; conditions: for wound area compared with the model group: once a day, WS635 oral 52.8 mg/kg, rb-bFGF external 262.5 IU/cm2, P<0.05, P<0.01; for wound healing rate over the administration cycle: once a day for 7 days, time course
Protocol: Eighteen 6-week-old male SD rats were randomly divided into 3 groups: model group, test article group and positive control group, with 6 rats in each group. Skin wound surgery was performed after anesthesia, and oral administration was started 2 h after skin wound formation. All rats were raised in a single cage. […]. The surgical details were as follows: All animals were anesthetized with 10% chloral hydrate solution (3 mL/kg) by intraperitoneal injection, their backs were depatured with pet shaving knives, and a circular mark with a diameter of 2 cm was made. After the skin was disinfected with alcohol, the full layer of skin was removed with surgical scissors along the marking line, and the wound surface was pressed to stop bleeding. The model group was orally given 10% DMSO corn oil, the test group was orally given WS635 (corn oil dissolved in 10% DMSO) at 52.8 mg/kg, and the positive control group was given 262.5 IU/cm2 (62.5 μL/cm^2) recombinant bovine basic fibroblast growth factor (rb-bFGF) external solution, once a day for 7 days. Digital photos were taken of the wound of each rat under the same conditions. The wound was recorded with plastic transparent paper, and the wound area was scanned by image J software after the wound was recorded with plastic transparent paper. Wound healing rate was calculated according to wound area (%)=(area after administration−area before administration)/area before administration 100%.

angiogenesis = test: Angiogenesis in rats; type: in vivo
[2] = Toxicity test of repeated oral administration for 9 days in rats; conditions: rat, in vivo, read-out: NOAEL (No Observed Adverse Effect Level) dose

**Q.** Which “wound area compared with the model group” value ([1]; Day 3) does the source give for `C/C=C/C[C@@H](C)[C@@H](O)[C@H]1C(=O)N[C@@H](CC)C(=O)N(C)[C@H](SCCN(C)C)C(=O)N(C)[C@@H](CC(C)(C)O)C(=O)N[C@@H](C(C)C)C(=O)N(C)[C@@H](CC(C)C)C(=O)N[C@@H](C)C(=O)N[C@H](C)C(=O)N(C)[C@@H](CC(C)C)C(=O)N(C)[C@@H](CC(C)C)C(=O)N(C)[C@@H](C(C)C)C(=O)N1C` [WS635, (3S,6S,9S,12R,15S,18S,21S,24S,27R,30S,33S)-27-((2-(dimethylamino)ethyl)thio)-30-ethyl-3 3-((1R,2R,E)-1-hydroxy-2-methylhex-4-en-1-yl)-24-(2-hydroxy-2-methylpropyl)-6,9,18-triisobutyl-3,21-diisopropyl-1,4,7,10,12,15,19,25,28-nonamethyl-1,4,7,10,13,16,19,22,25,28,31-undecaazacyclotritriacontan-2,5,8,11,14,17,20,23,26,29,32-undecaone] here?
**A.** decreased significantly

**Q.** And the “wound area compared with the model group” value ([1]; Day 7)?
**A.** decreased significantly

**Q.** What about the “wound healing effect of WS635 compared with rb-bFGF” value ([1]; WS635 oral 52.8 mg/kg vs rb-bFGF 262.5 IU/cm2, P>0.05, 52.8 mg/kg) of the same compound?
**A.** equivalent to rb-bFGF; also recorded: no significant difference

**Q.** And the “wound healing rate over the administration cycle” value [1]?
**A.** enhances wound healing rate in a time-dependent manner; also recorded: increased with the extension of administration time

**Q.** What about the “wound healing (overall conclusion)” value ([1]; oral administration, SD rats) of the same compound?
**A.** significantly promote wound healing

**Q.** What about the angiogenesis (angiogenesis) of the same compound?
**A.** significantly promote angiogenesis

**Q.** And the NOAEL at 9 days [2]?
**A.** 80 mg/kg/day

**Q.** Which “wound area compared with the model group” value ([1]; Day 3) does the source give for “rb-bFGF: recombinant bovine basic fibroblast growth factor (rb-bFGF) external solution, positive control” here?
**A.** decreased significantly

**Q.** What about the “wound area compared with the model group” value ([1]; Day 7) of the same compound?
**A.** decreased significantly

**Q.** What about the “wound healing rate over the administration cycle” value [1] of the same compound?
**A.** increased with the extension of administration time
